The target of assay [1] is Ba/F3 EGFR-D770_N771insSVD (Homo sapiens, UniProt P00533, DUP768-770, cells depend on it). Put plainly: Anti-proliferation against Ba/F3 exon 20 insertion mutant cells (SVD). As to conditions: CTG, 72 hours, read-out: Mutant cells IC50 (anti-proliferation). The format is cell-based, mouse. An excerpt:
RPMI1640 medium was purchased from Hyclone, FBS fetal bovine serum was purchased from GBICO, and trypsin-EDTA were both purchased from Giboco. DPBS was purchased from Corning, penicillin/streptomycin solution was purchased from Hyclone, and Cell-Titer Glo reagent was purchased from Promega (Cat. No. G7572). Ba/F3 EGFR-D770_N771insSVD, Ba/F3 EGFR-H773_V774insNPH, Ba/F3 EGFR-V769_D770insASV, BaF3 ERBB2 A775_G776 ins YVMA, the cell lines were constructed by Beijing Kang Yuan Bochuang Biotechnology Co., Ltd. Plate reading instrument: Envision (PerkinElmer).
Cells in logarithmic growth phase were harvested and cell counts were performed using a […]. Cell viability was detected by the Taipan Blue rejection assay. The cell concentration was adjusted; the cell suspension was added to a 96-well plate separately. Cells in 96-well plates were incubated overnight at 37° C., 5% CO2, and 95% humidity. To prepare the drug solution, 10 μL of drug solution was added to each well of the 96-well plate inoculated with cells, and three replicate wells were set up for each drug concentration. The cells in the 96-well plates added with drugs were placed at 37° C., 5% CO2, 95% humidity and continued to incubate for 72 hours, after which CTG analysis was performed and the cells were vibrated on an orbital shaker to lyse the cells. The cell plate was placed at room temperature to stabilize the cold light signal, and the cold light values were read. The data were analyzed using GraphPad Prism 7.0 software, and a nonlinear S-curve regression was used to fit the data to derive the dose-effect curve from which the IC50 values were calculated.
The IC50 of anti-proliferation activity against Ba/F3 Exon20 insertion mutant cells of the compounds of the present disclosure is shown in Table 5.
Ba/F3 exon 20 insertion mutant cells are cell lines with SVD, NPH, ASV, and YVMA insertion mutations artificially constructed using mouse B cells, and it can be seen from Table 5 that the compounds of the present disclosure have better cellular anti-proliferation activity against the […] exon 20 insertion mutations such as SVD, NPH, ASV, and YVMA, and also show better anti-proliferation activity against common exon 20 insertion mutations such as SVD mutation.

Assay [2] deals with non-small cell lung cancer with EGFR and HER2 exon 20 insertion mutation. As to conditions: clinical reports, NSCLC with EGFR and HER2 exon 20 insertion mutation; cited from earlier work.

Ba/F3 EGFR-D770_N771insSVD, sequence (P00533 with tags, fused parts or gaps DUP768-770): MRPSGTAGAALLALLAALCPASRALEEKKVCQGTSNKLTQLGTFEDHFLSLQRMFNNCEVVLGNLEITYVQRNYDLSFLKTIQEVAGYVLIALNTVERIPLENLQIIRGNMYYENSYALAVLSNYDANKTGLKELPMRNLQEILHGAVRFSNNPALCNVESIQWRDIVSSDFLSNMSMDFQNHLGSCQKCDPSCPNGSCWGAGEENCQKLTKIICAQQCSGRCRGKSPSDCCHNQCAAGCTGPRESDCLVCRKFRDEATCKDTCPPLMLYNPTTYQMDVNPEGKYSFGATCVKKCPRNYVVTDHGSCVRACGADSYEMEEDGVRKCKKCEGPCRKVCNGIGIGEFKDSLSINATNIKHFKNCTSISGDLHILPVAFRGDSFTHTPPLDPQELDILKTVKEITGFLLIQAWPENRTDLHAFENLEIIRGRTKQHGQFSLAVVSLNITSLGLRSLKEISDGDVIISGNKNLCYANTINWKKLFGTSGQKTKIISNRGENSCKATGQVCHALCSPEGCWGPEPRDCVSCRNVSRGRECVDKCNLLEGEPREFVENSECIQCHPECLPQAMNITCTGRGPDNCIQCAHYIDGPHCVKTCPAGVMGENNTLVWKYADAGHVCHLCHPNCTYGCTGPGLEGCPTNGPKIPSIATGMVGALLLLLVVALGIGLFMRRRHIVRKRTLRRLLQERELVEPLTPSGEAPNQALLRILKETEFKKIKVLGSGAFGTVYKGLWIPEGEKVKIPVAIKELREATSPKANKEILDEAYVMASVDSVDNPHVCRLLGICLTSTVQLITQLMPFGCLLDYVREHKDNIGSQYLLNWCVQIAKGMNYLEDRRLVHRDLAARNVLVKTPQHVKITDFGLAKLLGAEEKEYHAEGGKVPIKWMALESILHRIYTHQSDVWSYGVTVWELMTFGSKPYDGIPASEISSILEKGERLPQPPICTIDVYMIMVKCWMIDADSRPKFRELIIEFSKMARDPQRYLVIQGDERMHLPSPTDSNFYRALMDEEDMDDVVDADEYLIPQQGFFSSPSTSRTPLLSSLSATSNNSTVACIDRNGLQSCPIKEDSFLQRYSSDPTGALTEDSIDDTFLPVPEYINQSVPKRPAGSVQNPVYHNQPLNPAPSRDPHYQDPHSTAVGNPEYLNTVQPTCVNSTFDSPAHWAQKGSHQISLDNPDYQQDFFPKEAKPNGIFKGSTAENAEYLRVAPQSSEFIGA

In the case of `C=CC(=O)Nc1cc(Nc2ncc(C(=O)OC(C)C)c(-c3cn(OCC)c4ccccc34)n2)c(OC)cc1N(C)CCN(C)C` [Compound 2], the GI50 in assay [1] was determined as 27 nM. For `C=CC(=O)Nc1cc(Nc2ncc(C(=O)OC(C)C)c(-c3cn(OC(C)C)c4ccccc34)n2)c(OC)cc1N(C)CCN(C)C` [Compound 3], the GI50 in assay [1] was found to be 54 nM.

Consider `C=CC(=O)Nc1cc(Nc2ncc(C(=O)OC(C)C)c(-c3cn(OC)c4c(Cl)cccc34)n2)c(OC)cc1N(C)CCN(C)C` [Compound 4], for which the GI50 in assay [1] was determined as 33 nM.

Consider `C=CC(=O)Nc1cc(Nc2ncc(C(=O)OC(C)C)c(-c3cn(OC)c4c(C5CC5)cccc34)n2)c(OC)cc1N(C)CCN(C)C` [Compound 5], for which the GI50 in assay [1] is 58 nM. For the compound `C=CC(=O)Nc1cc(Nc2ncc(C(=O)OC(C)C)c(-c3cn(C)c4ccccc34)n2)c(OC)cc1N(C)CCN(C)C` [TAK788], in assay [2], the disease control rate was 86% and the objective response rate was 43%.

The values are drawn from patent publication US11530196B2, “Pyrimidine compound acting on EGFR and ERBB2” (CHINA RESOURCES PHARMACEUTICAL HOLDINGS COMPANY LIMITED, priority 2019, dated 2022).
